Measured values published in PMC6112376, “Comprehensive Analyses and Prioritization of Tox21 10K Chemicals Affecting Mitochondrial Function by in-Depth Mechanistic Studies” (Environmental Health Perspectives, 2018).
Read-outs that look alike come from different tables or passages of the source.

How the values were obtained:
HepG2 cells [1] = conditions: cited from earlier work
HepG2 cells [2] = test: cells; conditions: Homo sapiens; for IC50: HepG2, read-out: MMP assays IC50 (µM) HepG2; for Emax: HepG2, read-out: MMP assays efficacy (%) HepG2
rat primary hepatocytes = test: MMP assay in rat primary hepatocytes; conditions: for MMP assays IC50 (µM) Rat Hepatocytes / MMP assays efficacy (%) Rat Hepatocytes: mean ± SD of three experiments; for IC50: Rattus norvegicus, Hepatocyte, read-out: MMP assays IC50 (µM) Rat Hepatocytes
[3] = read-out: MMP assays IC50 (µM) qHTS-HepG2
[4] = read-out: MMP assays IC50 (µM), qHTS-HepG2

| Compound | MMP assays efficacy (%) qHTS-HepG2 (HepG2 cells [1]) | IC50 (HepG2 cells [1]; [3]) | IC50 (HepG2 cells [2]) | Emax (HepG2 cells [2]) | MMP assays IC50 (µM) Rat Hepatocytes (rat primary hepatocytes) | MMP assays efficacy (%) Rat Hepatocytes (rat primary hepatocytes) | IC50 (rat primary hepatocytes) | IC50 (HepG2 cells [1]; [4]) |
| --- | --- | --- | --- | --- | --- | --- | --- | --- |
| O=C1OC[C@H](Cc2cccc(O)c2)[C@H]1Cc1cccc(O)c1 [Enterolactone] | -79±21% | 9.99 ± 5.02 µM | 10.7 µM | 76% | inactive | inactive | – | – |
| Cc1cc(O)c2c(O)c3c(O)cccc3cc2c1 [Chrysarobin] | -105±7% | 22.8 ± 3.93 µM | 30.8 µM | 90% | – | -52±8% | 19.3 ± 8.27 µM | – |
| CCCCCCCCCCCCOC(=O)c1cc(O)c(O)c(O)c1 [Dodecyl gallate] | -99±8% | 4.75 ± 1.81 µM | 7.94 µM | 100% | – | -65±17% | 48.7 ± 8.3 µM | – |
| Clc1ccc(Sc2cc(Cl)c(Cl)cc2Cl)cc1 [Tetrasul] | -77±0% | – | 2.51 µM | 72% | inactive | inactive | – | 1.77 ± 0.25 µM |
| Oc1ccc(Cl)c2cccnc12 [Cloxyquin] | -58±10% | 16.8 ± 5.94 µM | 15.5 µM | 79% | inactive | inactive | – | – |
| COC(=O)C1=C(C)NC(C)=C(C(=O)OCCN2CCN(C(c3ccccc3)c3ccccc3)CC2)C1c1cccc([N+](=O)[O-])c1 (stereo not drawn) [Manidipine] | -95±13% | – | 27.5 µM | 98% | – | -40±8% | 20.9 ± 5.06 µM | 12.2 ± 6.82 µM |
| Oc1cc(O)c(Cl)cc1Cl [4,6-Dichloro-1,3-benzenediol] | -100±10% | 9.55 ± 2.74 µM | 15.8 µM | 108% | – | -37±3% | 35.7 ± 5.79 µM | – |
| CCC(=O)O[C@]1(C(=O)CCl)[C@@H](C)C[C@H]2[C@@H]3C[C@H](F)C4=CC(=O)C=C[C@]4(C)[C@@]3(F)[C@@H](O)C[C@@]21C [Halobetasol propionate] | -106±7% | – | 13.8 µM | 127% | – | -82±13% | 25.2 ± 7.02 µM | 15.2 ± 5.52 µM |
| CN1C(=O)/C(=N\NC(N)=S)c2ccccc21 [Methisazone] | -96±7% | – | 12.6 µM | 90% | – | -94±16% | 21.5 ± 9.04 µM | 5.82 ± 1.38 µM |
| O=C(c1ccccc1)c1ccc(O)cc1 [Compound 4-Hydroxybenzophenone] | -87±12% | 41.3 ± 18.1 µM | 28.2 µM | 116% | – | -82±39% | 17.8 ± 28 µM | – |
| CSc1nc2cc(Cl)c(Oc3cccc(Cl)c3Cl)cc2[nH]1 [Triclabendazole] | -114±15% | – | 5.48 µM | 97% | – | -91±10% | 15.6 ± 2.52 µM | 1.84 ± 0.15 µM |
| O=C1OC(=O)c2cccc3cccc1c23 [1H,3H-Naphtho(1,8-cd)pyran-1,3-dione] | -51±8% | 3.89 ± 1.12 µM | 7.94 µM | 63% | inactive | inactive | – | – |
| CCC(CC)(CC(=O)Nc1cccc(/C=C/c2nc(C3CCC3)cs2)c1)C(=O)O [Cinalukast] | -92±29% | 28.8 ± 1.17 µM | 17.3 µM | 96% | – | -67±19% | 13.5 ± 5.36 µM | – |
| CC(C)(C)CC(C)(C)c1ccc(O)c(Cc2ccc(Cl)cc2Cl)c1 [Clofoctol] | -112±5% | 1.64 ± 0.13 µM | 4.35 µM | 92% | – | -65±37% | 15.7 ± 6.04 µM | – |
| C#C[C@]1(O)CC[C@H]2[C@@H]3CCC4=CCCC[C@@H]4[C@H]3CC[C@@]21C [Lynestrenol] | -104±10% | – | 7.4 µM | 55% | inactive | inactive | – | 16.6 ± 2.15 µM |
| CC(=O)Oc1cccc2c1C(=O)c1c(OC(C)=O)cc(C(=O)O)cc1C2=O [Diacerein] | -81±16% | 20.6 ± 8.26 µM | 17.3 µM | 61% | – | -70±14% | 14.2 ± 11.3 µM | – |
| CC(C)(C)c1ccc(OC(=O)c2ccccc2O)cc1 [4-tert-Butylphenyl salicylate] | -78±23% | 28.4 ± 3.64 µM | 35.5 µM | 90% | inactive | inactive | – | – |
| Oc1ccc(OCc2ccccc2)cc1 [4-(Benzyloxyl)phenol] | -87±9% | 18.5 ± 1.51 µM | 7.4 µM | 93% | – | -46±35% | 9.04 ± 8.1 µM | – |
